# Measured values as given in PubChem BioAssay AID449764 (Southern Research Specialized Biocontainment Screening …, 2010).
# Test system: Mycobacterium tuberculosis H37Rv growth inhibition, no glycerol
# Experiment: Confirmatory growth inhibition assay, Mycobacterium tuberculosis H37Rv, absence of glycerol (AID 449764);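 further: growth read after 7 days of incubation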
# Conditions: for IC90: measured here: IC90 growth inhibition
SMILES,IC50 [µM],IC90 [µM]
Cc1cc(C(=O)N[C@H](c2ccccc2)[C@@]2(C)C[C@@H]2[C@@H](C)C(=O)Nc2ccc3ccccc3c2)n(C)n1,39.1,53.9
S=C(Nc1ccc(Nc2ccccc2)cc1)Nc1ccccn1,48.6,> 50
CCc1nc(N2CCN(C(C)=O)CC2)c2c3c(sc2n1)CC(C(C)(C)C)CC3 (stereo not given),17.9,21.5
CCCNC(=S)Nc1ccc(Nc2ccccc2)cc1,25,44.5
O=C(c1ccccc1)c1nn(-c2ccc(Cl)cc2)c(=O)cc1C(F)(F)F,20.1,31.1
C[C@]12C=CC(=O)C=C1CC[C@@H]1C2=CC[C@]2(C)[C@@H](C(=O)CN3CCN(c4cc(N5CCCC5)nc(N5CCCC5)n4)CC3)CC[C@@H]12,38.5,55.9
C#CCOC(=O)/C(=C/C=C/c1ccccc1)NC(=O)c1ccccc1,27.1,56.6
O=C(CCl)Nc1sccc1C(=O)c1ccccc1,0.45,12.6
C/C(=N\NC(=S)Nc1cccc(C)c1)c1cccc(N)c1,21.6,23.7
O=C(N/N=C\c1ccc[nH]1)c1cncc(Br)c1,45.3,50.8
Oc1ccc(CN2CCc3ccccc3C2)c2cccnc12,72.7,> 100
CCOC(=O)c1ccc(N=C2C(=S)N(c3ccc(C(=O)OCC)cc3)C(=N)N2/N=C/c2ccccc2)cc1,99.7,> 100
N#CC1=C(c2ccccc2)/C(=C/c2ccccc2)OC1=O,11.6,23.2
Cc1nn(-c2nc3ccccc3[nH]2)c(N)c1-c1ccc(Cl)cc1,3.72,> 100
O=C([O-])c1ccccc1-[n+]1c(-c2ccccc2)cc(-c2ccccc2)cc1-c1ccccc1,22,24.5
CCN(CC)S(=O)(=O)c1ccc(/C=C/C(=O)OCC#N)cc1,23.3,47.2
CCCn1nnc(NC(=O)COc2ccc(CC)cc2)n1,48.4,> 100
CCC(=O)N1c2ccc(S(=O)(=O)CCC(=O)N3CCn4c3nc3ccccc34)cc2CC1C (stereo not given),23.4,27.5
Cc1ccc(Cl)cc1N1CCN(C(=O)C2CCC(=O)N(C3CCCCCC3)C2)CC1 (stereo not given),28.7,40.4
O=C1NN(c2ccc(Br)cc2)C(=O)/C1=C\c1ccc(O)cc1O,,> 100
Cc1ccc2nc(/N=C(\N)NC(=O)NC3CCCCC3)nc(C)c2c1,6.71,16.6

SMILES,IC50 [µM],IC90 [µM]
CCCCCNc1nc(N2CCCC2)c2c(c1C#N)CCN(C)C2,,> 100
CCOC(=O)c1cc(-c2ccc(N3CCOCC3)cc2)nn1-c1ccccc1,27.9,58.1
Cc1ccc(NC(=O)CSc2nc3ccccc3c(=O)n2CCCN2CCCCC2)cc1Cl,36.6,79.2
Cc1ccc(Nc2nc(CSc3nnc(-c4cccs4)o3)cs2)cc1,43.3,> 100
CCCCCCc1cc2cc(C(=O)NCc3ccccc3)c(=N)oc2cc1O,5.67,6.45
O=C(COc1cccc(Oc2ccccc2)c1)Nc1ncccn1,50.4,> 100
Nc1cc([N+](=O)[O-])cc2oc(-c3ccccc3)cc12,,> 100
Nc1cc([N+](=O)[O-])ccc1Nc1ccc(O)cc1,30.6,36.6
CC(OC(=O)c1cnc2ccccc2n1)c1ccccc1Cl (stereo not given),22,34
CN1/C(=C\C(=O)COC(=O)c2ccc([N+](=O)[O-])o2)C(C)(C)c2ccccc21,20.9,30.3
C/C(=N\Nc1nc2c(s1)CCCC2)c1ccccc1,30.6,47.2
CSC1=NC(C)(C)C=C(/C=C/c2ccc(Cl)cc2)N1,38.3,56.7
O=C(c1cnn2c(C(F)F)cc(-c3ccccc3)nc12)N1CCc2ccccc2C1,35.4,48.6
C#CCOCCOCCOCCNc1nc(N2CCN(C(=O)CCCCCCCCCCNC(=O)[C@H](CCCCN)n3cc(CCCC(=O)O)nn3)CC2)nc(N2CCN(C(=O)CCCCCCCCCCNC(=O)[C@H](CCCN=C(N)N)n3cc(C[C@@H](C)CC)nn3)CC2)n1,6.73,9.93
CCOC(=O)c1ccccc1NC(=O)COc1coc(CN2CCc3ccccc32)cc1=O,27.1,47.8
Cc1[nH]c2ccc(OC(F)(F)F)cc2c1CCNCc1ccc(Cl)cc1,14.2,18.8
Cc1cc(N2CCC(C)CC2)nc(-n2nc(C)cc2C)n1,0.97,2.97
CCOC(=O)/C(=N/Nc1ccc(OC)cc1)N1CCCc2ccccc21,95.3,> 100
COc1ccc(CNC[C@@H](CCCCN(C)Cc2ccc(OC)cc2)N2C[C@H](c3ccccc3)N(CCc3ccc(Cl)c(Cl)c3)C(=O)C2=O)cc1,10.5,14
CCOC(=O)C1=NOC(CNc2ncc(C(F)(F)F)cc2Cl)C1 (stereo not given),11.3,14.4
CCCCCCCCn1sccc1=O,2.06,2.83

SMILES,IC50 [µM],IC90 [µM]
CCCn1c(Nc2nc3ccccc3n2C)nc2ccccc21,65.3,75.8
COc1ccc([C@H]2CC(=O)C=C(c3ccc4c5c(cccc35)CC4)C2)cc1,,> 100
CCN(CC)S(=O)(=O)c1ccc2oc(SCC(=O)Nc3cc(C)on3)nc2c1,10.8,16.6
Cc1ccc(-c2cc(-c3ccccc3C)[nH]n2)c(O)c1,38.4,> 100
CCc1ccc(-c2cc(C)no2)cc1S(=O)(=O)NCCCN1CCN(c2ccccc2)CC1,39,47.2
Cc1ccc(C(=O)N/C(=C/c2ccc(-c3cc(C(F)(F)F)ccc3Cl)o2)C(=O)NCc2cccnc2)cc1,73.6,> 100
CCCCN(CCCC)CCC(O)c1cc2c(Cl)cc(Cl)cc2c2cc(C(F)(F)F)ccc12 (stereo not given),17.6,23.4
Cc1cc(C)n(C(=O)c2ccc([N+](=O)[O-])cc2[N+](=O)[O-])n1,8.89,12.3
Cc1nc(-c2nc(-c3c(C(=O)NNC(=O)c4ccc(Cl)cc4)noc3C)cs2)cs1,24.7,> 100
CC[n+]1c(/C=C/N(C)c2ccccc2)n(-c2ccccc2)c2ccc(-c3nc4ccccc4s3)cc21,1.13,1.36
CC(C)=N/N=C1/NC(=O)C(Cc2ccccc2)S1 (stereo not given),76.5,97.2
CC(c1nc2ccccc2c(=O)[nH]1)N(C)CCOc1ccc(Cl)cc1 (stereo not given),40.7,55.5
CNc1ccc2nc3ccccc3[n+](C)c2c1,1.16,1.68
COc1ccc(-c2cc3c(=O)n(CC(=O)NCCCN4CCC(Cc5ccccc5)CC4)ncn3n2)cc1,28.1,39.7
CCCSc1nn2c(=O)c3ccccc3nc2s1,14.7,28.1
C=C1C(=O)O[C@@H]2C[C@@H](C)[C@@H]3C4OC4C(=O)[C@@]3(C)[C@@H](O)[C@H]12 (stereo not given in full),10.5,13
Oc1ccc2ccccc2c1N=Nc1nccs1,1.96,3.06
O=c1c(C=NCCN2CCNCC2)c(O)n(C2CCCCC2)c(=O)n1C1CCCCC1,28.4,32.5
CCOc1cccc(/C=C/c2ccc3cccc(O)c3n2)c1O,4.28,> 100
O=C(/C=C/c1ccc(O)c([N+](=O)[O-])c1)c1ccc2ccccc2c1,24,> 100
